In PubChem BioAssay (NCI):
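Growth conditions: 96-well plates. Treatment: test compound, 48 hours, 5 concentrations. Analysis: linear interpolation between bracketing concentrations; unreached endpoints set to highest concentration. GI50 = concentration required for 50% inhibition of growth. TGI marks complete inhibition of growth.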

What was measured:
Test in all cases: NCI anticancer screen, dose series, 48 h
786-0 renal = system: 786-0 renal
A498 renal = system: A498 renal
A549 NSCLC = system: A549 NSCLC
ACHN renal = system: ACHN renal
BT-549 breast = system: BT-549 breast
CAKI-1 renal = system: CAKI-1 renal
CCRF-CEM leukemia = system: CCRF-CEM leukemia
COLO 205 colon = system: COLO 205 colon
DU-145 prostate = system: DU-145 prostate
EKVX NSCLC = system: EKVX NSCLC
HCC-2998 colon = system: HCC-2998 colon
HCT-116 colon = system: HCT-116 colon
HCT-15 colon = system: HCT-15 colon
HL-60(TB) leukemia = system: HL-60(TB) leukemia
HOP-62 NSCLC = system: HOP-62 NSCLC
HOP-92 NSCLC = system: HOP-92 NSCLC
HS 578T breast = system: HS 578T breast
HT29 colon = system: HT29 colon
IGROV1 ovarian = system: IGROV1 ovarian
K-562 leukemia = system: K-562 leukemia
KM12 colon = system: KM12 colon
LOX IMVI melanoma = system: LOX IMVI melanoma
M14 melanoma = system: M14 melanoma
MALME-3M melanoma = system: MALME-3M melanoma
MCF7 breast = system: MCF7 breast
MDA-MB-231 breast = system: MDA-MB-231 breast
MDA-MB-435 = system: MDA-MB-435
MOLT-4 leukemia = system: MOLT-4 leukemia
NCI-H226 lung = system: NCI-H226 lung
NCI-H23 lung = system: NCI-H23 lung
NCI-H460 lung = system: NCI-H460 lung
NCI-H522 lung = system: NCI-H522 lung
NCI/ADR-RES ovarian = system: NCI/ADR-RES ovarian
OVCAR-4 ovarian = system: OVCAR-4 ovarian
OVCAR-5 ovarian = system: OVCAR-5 ovarian
OVCAR-8 ovarian = system: OVCAR-8 ovarian
PC-3 prostate = system: PC-3 prostate
RPMI-8226 leukemia = system: RPMI-8226 leukemia
RXF 393 renal = system: RXF 393 renal
SF-268 CNS = system: SF-268 CNS
SF-295 CNS = system: SF-295 CNS
SF-539 CNS = system: SF-539 CNS
SK-MEL-2 melanoma = system: SK-MEL-2 melanoma
SK-MEL-28 melanoma = system: SK-MEL-28 melanoma
SK-MEL-5 melanoma = system: SK-MEL-5 melanoma
SK-OV-3 ovarian = system: SK-OV-3 ovarian
SN12C renal = system: SN12C renal
SNB-19 CNS = system: SNB-19 CNS
SNB-75 CNS = system: SNB-75 CNS
SR leukemia = system: SR leukemia
SW-620 colon = system: SW-620 colon
T-47D breast = system: T-47D breast
TK-10 renal = system: TK-10 renal
U251 CNS = system: U251 CNS
UACC-257 melanoma = system: UACC-257 melanoma
UACC-62 melanoma = system: UACC-62 melanoma
UO-31 renal = system: UO-31 renal

CN1CCN(Cc2ccc(NC(=O)c3cncc(C#Cc4cnc5ccc(OCC6(C)COC6)nn45)c3)cc2C(F)(F)F)CC1
GI50 (786-0 renal): 215 nM
TGI (786-0 renal): 720 nM
GI50 (A498 renal): 142 nM
TGI (A498 renal): 407 nM
GI50 (A549 NSCLC): 145 nM
TGI (A549 NSCLC): 433 nM
GI50 (ACHN renal): 108 nM
TGI (ACHN renal): 465 nM
GI50 (BT-549 breast): 320 nM
TGI (BT-549 breast): 940 nM
GI50 (CAKI-1 renal): 87.8 nM
TGI (CAKI-1 renal): 254 nM
GI50 (CCRF-CEM leukemia): 165 nM
TGI (CCRF-CEM leukemia): 15900 nM
GI50 (COLO 205 colon): 111 nM
TGI (COLO 205 colon): 236 nM
GI50 (DU-145 prostate): 164 nM
TGI (DU-145 prostate): 527 nM
GI50 (EKVX NSCLC): 152 nM
TGI (EKVX NSCLC): 641 nM
GI50 (HCC-2998 colon): 199 nM
TGI (HCC-2998 colon): 656 nM
GI50 (HCT-116 colon): 125 nM
TGI (HCT-116 colon): 476 nM
GI50 (HCT-15 colon): 123 nM
TGI (HCT-15 colon): 408 nM
GI50 (HL-60(TB) leukemia): 190 nM
TGI (HL-60(TB) leukemia): 604 nM
GI50 (HOP-62 NSCLC): 156 nM
TGI (HOP-62 NSCLC): 518 nM
GI50 (HOP-92 NSCLC): 59.5 nM
TGI (HOP-92 NSCLC): 217 nM
GI50 (HS 578T breast): 80.4 nM
TGI (HS 578T breast): 321 nM
GI50 (HT29 colon): 151 nM
TGI (HT29 colon): 639 nM
GI50 (IGROV1 ovarian): 105 nM
TGI (IGROV1 ovarian): 437 nM
GI50 (K-562 leukemia): 5 nM
TGI (K-562 leukemia): 50000 nM
GI50 (KM12 colon): 5 nM
TGI (KM12 colon): 352 nM
GI50 (LOX IMVI melanoma): 107 nM
TGI (LOX IMVI melanoma): 322 nM
GI50 (M14 melanoma): 84.9 nM
TGI (M14 melanoma): 218 nM
GI50 (MALME-3M melanoma): 89 nM
TGI (MALME-3M melanoma): 303 nM
GI50 (MCF7 breast): 86 nM
TGI (MCF7 breast): 525 nM
GI50 (MDA-MB-231 breast): 73.1 nM
TGI (MDA-MB-231 breast): 243 nM
GI50 (MDA-MB-435): 142 nM
TGI (MDA-MB-435): 535 nM
GI50 (MOLT-4 leukemia): 145 nM
TGI (MOLT-4 leukemia): 16500 nM
GI50 (NCI-H226 lung): 98.5 nM
TGI (NCI-H226 lung): 975 nM
GI50 (NCI-H23 lung): 134 nM
TGI (NCI-H23 lung): 462 nM
GI50 (NCI-H460 lung): 194 nM
TGI (NCI-H460 lung): 669 nM
GI50 (NCI-H522 lung): 96.7 nM
TGI (NCI-H522 lung): 204 nM
GI50 (NCI/ADR-RES ovarian): 163 nM
TGI (NCI/ADR-RES ovarian): 580 nM
GI50 (OVCAR-4 ovarian): 135 nM
TGI (OVCAR-4 ovarian): 757 nM
GI50 (OVCAR-5 ovarian): 172 nM
TGI (OVCAR-5 ovarian): 609 nM
GI50 (OVCAR-8 ovarian): 157 nM
TGI (OVCAR-8 ovarian): 547 nM
GI50 (PC-3 prostate): 218 nM
TGI (PC-3 prostate): 830 nM
GI50 (RPMI-8226 leukemia): 223 nM
TGI (RPMI-8226 leukemia): 1440 nM
GI50 (RXF 393 renal): 113 nM
TGI (RXF 393 renal): 294 nM
GI50 (SF-268 CNS): 117 nM
TGI (SF-268 CNS): 333 nM
GI50 (SF-295 CNS): 440 nM
TGI (SF-295 CNS): 1070 nM
GI50 (SF-539 CNS): 91.1 nM
TGI (SF-539 CNS): 573 nM
GI50 (SK-MEL-2 melanoma): 102 nM
TGI (SK-MEL-2 melanoma): 218 nM
GI50 (SK-MEL-28 melanoma): 167 nM
TGI (SK-MEL-28 melanoma): 612 nM
GI50 (SK-MEL-5 melanoma): 642 nM
TGI (SK-MEL-5 melanoma): 1280 nM
GI50 (SK-OV-3 ovarian): 233 nM
TGI (SK-OV-3 ovarian): 747 nM
GI50 (SN12C renal): 112 nM
TGI (SN12C renal): 489 nM
GI50 (SNB-19 CNS): 200 nM
TGI (SNB-19 CNS): 668 nM
GI50 (SNB-75 CNS): 128 nM
TGI (SNB-75 CNS): 357 nM
GI50 (SR leukemia): 140 nM
TGI (SR leukemia): 1650 nM
GI50 (SW-620 colon): 121 nM
TGI (SW-620 colon): 317 nM
GI50 (T-47D breast): 279 nM
TGI (T-47D breast): 1150 nM
GI50 (TK-10 renal): 149 nM
TGI (TK-10 renal): 451 nM
GI50 (U251 CNS): 193 nM
TGI (U251 CNS): 715 nM
GI50 (UACC-257 melanoma): 228 nM
TGI (UACC-257 melanoma): 829 nM
GI50 (UACC-62 melanoma): 125 nM
TGI (UACC-62 melanoma): 577 nM
GI50 (UO-31 renal): 130 nM
TGI (UO-31 renal): 436 nM
